Assay results taken from patent publication US9539321B2, “HMGB1-derived peptides enhance immune response to antigens” (The Regents of the University of California, priority 2010, dated 2017).
“Also recorded” adds a separate entry of the source. Like-named read-outs stand apart in the source and are kept apart here. Each block holds one compound with its values, some of them ahead of it. Where a SMILES comes first, the peptide text is derived from it. The star is where a group is joined. Biotin = O=C1N[C@H]2[C@H](CS[C@H]2CCCCC(=O)*)N1

Columns and labels:
J774 macrophages [1] = assay: Uptake of Cp488-labeled Hp91 by macrophages, flow cytometry; format: cell-based, mouse; settings: Dynasore 80 μM, Cp488-labeled Hp91 200 μg ml^−1
[2] = system: p-IRF3 in RAW 264.7 macrophages; assay: Immunoblotting for phospho-IRF3; format: cell-based, mouse; settings: Dynasore 80 μM pre-treatment
J774 macrophages [3] = format: cell-based, mouse
[4] = Adverse effects of tested doses in mice; format: in vivo
Immature human DCs [5] = assay: Peptide binding/uptake by flow cytometry; settings: for uptake by DCs: biotinylated peptide 200 μg ml^−1, 30 minutes, 37° C.
Immature human DCs [6] = assay: Stimulation of DCs, IL-6 by ELISA; format: cell-based; settings: for effect of inhibitor pre-treatment on Hp91-induced IL-6 secretion: SB203580 5 or 20 μM, PD98059 20 μM, TPCK 20 μM, 48 h
[7] = system: antigen-specific IFN-γ secreting T cells; assay: IFN-γ ELISPOT of splenocytes from immunized mice; format: in vivo, C57BL/6 mice; settings: for number of antigen-specific IFNγ-secreting T cells compared to PBS: equimolar peptide with SIINFEKL peptide
Description: Female C57BL/6 mice 8-12 weeks of age were used for most experiments. All mice were purchased from Charles River Laboratories (Boston, Mass., USA) and housed at the Moores UCSD Cancer Center animal facility. All animal studies were approved by the Institutional Animal Care and Use Committee of UCSD and were perfolined in accordance with the institutional guidelines. For most experiments, mice were immunized s.c. with 50 μg of SIINFEKL (OVA-I) peptide (SEQ ID NO: 45) and 50 μg of ISQAVHAAHAEINEAGR (OVA-II) peptide (SEQ ID NO: 46). The OVA peptide was co-administered with either Hp91 (30 to 500 μg) or PBS (negative control). For some experiments, a protein vaccine group was included, wherein 500 μg of Hp91 was co-administered with 100 μg of LPS-free OVA protein. As a positive control, mice were immunized s.c. with OVA peptide(s) or protein in Incomplete Freund's Adjuvant “IFA” (Sigma-Aldrich, St. Louis, Mo., USA). If not otherwise indicated, mice were immunized and boosted two weeks later and spleens and blood were collected 10-14 days after the final immunization.
Single cell suspensions of splenocytes were prepared by mechanical disruption and separation through a 70 μm nylon cell strainer (BD Biosciences, Franklin Lakes, N.J., USA). Red blood cells were lysed using ammonium chloride buffer (Roche Diagnostics, Indianapolis, Ind., USA) and the splenocytes were subsequently resuspended in complete medium (RPMI 1640 with 10% FBS, L-glutamine, penicillin, streptomycin, and HEPES). in some experiments, CD4+ and CD8+ cells were depleted from bulk splenocyte populations using anti-CD4 or anti-CD8α conjugated microbeads (Miltenyi-Biotec, Auburn, Calif., USA) according to the manufacturer's instructions.
Freshly isolated splenocytes were plated in duplicate to wells of a nitrocellulose bottom enzyme-linked immunospot (ELISPOT) plate (Millipore, Millerica, Mass., USA) that had been previously coated overnight with 5 μg ml^−1 monoclonal anti-mouse IFN-γ antibody (Mabtech, Stockholm, Sweden). Splenocytes were cultured overnight at 37° C. with 2.5 μg ml^−1 SIINFEKL (OVA-I) peptide, 2.5 μg ml^−1 ISQAVHAAHAEINEAGR (OVA-II) peptide, or left unstimulated (medium only). After 18 h, culture supernatants were collected for cytokine analysis and ELISPOT plates were developed using 1 μg ml^−1 biotinylated anti-mouse IFN-γ antibody (Mabtech), Streptavidin-HRP (Mabtech), and TMB Substrate (Mabtech). The plate was scanned and the spots were counted using an automated ELISpot Reader System (CTL ImmunoSpot, Shaker Heights, Ohio, USA).
Mice were immunized s.c. with 50 μg of SIINFEKL peptide. The SIINFEKL peptide was co-administered with either PBS, Hp91 (250 μg), or scrambled Hp91 (250 μg). Peptides were dissolved in PBS for all immunizations, Mice were boosted two weeks later and spleens and blood were collected one week after the final immunization. Single cell suspensions of splenocytes were prepared by mechanical disruption and separation through a […] nylon cell strainer (BD Biosciences). Red blood cells were lysed using ammonium chloride buffer (Roche Diagnostics, Indianapolis, Ind.) and the splenocytes were subsequently resuspended in RPMI 1640 medium (Invitrogen) supplemented with 10 mmol HEPES (GIBCO-BRL), penicillin (100 U/mL)—streptomycin (100 μg/mL)—glutamine (2 mM) (GIBCO-BRI.), arid 5% (vol/vol) fetal calf serum (Omega).
Freshly isolated splenocytes were plated in duplicate to wells of a nifrocellulose bottom enzymelinked immunospot (ELISPOT) plate (Millipore, NAillerica, Mass., USA) that had been previously coated overnight with 5 μg ml^−1 monoclonal anti-mouse IFN-γ antibody (Mabtech, Stockholm, Sweden). Splenocytes were cultured overnight at 37° C., with 2.5 μg ml^−1 SIINFEKL peptide, 5 μg ml^−1 concanavalin A positive control (Sigma), or left unstimulated (medium only). […]

Circular dichroism = format: physicochemical; settings: 75%/25% TFE/H2O, 200 μg ml^−1
Description: CD spectra of peptides, dissolved in 75%/25% Trifluoroethanol (TFE, Sigma)/H2O (vol/vol), were collected on an AVIV model 202 Circular Dichroism Spectrometer, under nitrogen, using a 1 mm pathlength quartz cuvette. These spectra were corrected by subtraction of a “solvent-only” spectrum and smoothed. The spectra are shown in mean residue ellipticity (θmrw). Peptides were analyzed at 200 μg ml^−1.

B16 melanoma cells = assay: Prophylactic B16 tumor challenge
splenocytes = assay: IL-2 / IL-4 secretion of splenocytes from immunized mice by ELISA; format: in vivo, C57BL/6 mice
Description: Splenocytes were cultured overnight with 2.5 μg ml^−1 OVA-I peptide, 2.5 μg ml^−1 OVA-II peptide, 5 μg ml^−1 concanavalin A positive control (Sigma), or left unstimulated (media only). After 18 h, cell culture supernatants were collected and analyzed for the presence of IL-2 and IL-4 by ELISA (eBioscience).
(§1) To measure cytokine release from immunized mice, splenocytes were cultured overnight with 2.5 μg ml^−1 SINFEKI: peptide, 5 μg ml^−1 concanavalin A positive control (Sigma), or left unstimulated (medium only). After 18 h, cell culture supernatants were collected and analyzed for the presence of IL-2 by ELISA. (eBioscience).
as §1, with “SIINFEKL” for “SINFEKI:”, “(media” for “(medium”, “ELISA” for “ELISA.”

Immature human DCs [8] = settings: cited from earlier work
Immature human DCs [9] = assay: Confocal microscopy of peptide binding/uptake; format: cell-based; settings: even after 30 minutes at 37° C.
Description: Immature human DCs (10^5) were pre-cooled on ice and subsequently incubated for 30 minutes on ice in culture medium with biotinylated Hp91 or Hp121 to allow peptide binding. Cells were washed and then incubated for the indicated time at 37° C. Cells were cytospun (Shandon Cytospin 2 centrintge) onto glass slides, fixed, pernieabiiized with acetone, and stained with Streptavidin-Alexa 488 (Invitrogen) to visualize biotinylated peptides and Hoechst 33258 DNA stain (Invitrogen). Cells were imaged on a Zeiss LSM confocal microscope.

mouse BM-DCs = assay: Stimulation of mouse BM-DCs, IL-6 by ELISA; format: cell-based
[10] = biotinylated, 90 μM, 30 minutes 37° C.

Compound: O=C(N/N=C/c1ccc(O)c(O)c1)c1cc2ccccc2cc1O [Dynasore]
effect on uptake of Hp91 (J774 macrophages [1]): significantly inhibited uptake | effect on Hp91-induced phosphorylation of IRF3 [2]: reduced the phosphorylation of IRF3 | effect of inhibitor pre-treatment on Hp91-induced IL-6 secretion (J774 macrophages [3]): significantly reduced

Compound: CC(C)C[C@H](NC(=O)[C@H](Cc1ccccc1)NC(=O)[C@H](Cc1ccccc1)NC(=O)[C@H](C)NC(=O)[C@H](CO)NC(=O)[C@@H]1CCCN1C(=O)[C@@H]1CCCN1C(=O)[C@H](CCCNC(=N)N)NC(=O)[C@H](CCCCN)NC(=O)[C@@H]1CCCN1C(=O)[C@H](C)NC(=O)[C@H](CC(N)=O)NC(=O)[C@@H]1CCCN1C(=O)[C@H](CC(=O)O)NC(=O)CCCC[C@@H]1SC[C@@H]2NC(=O)N[C@@H]21)C(=O)N[C@@H](Cc1ccccc1)C(=O)N[C@@H](CS)C(=O)N[C@@H](CO)C(=O)N[C@@H](CCC(=O)O)C(=O)O [Hp91, DPNAPKRPPSAFFLFCSE] (Biotin-DPNAPKRPPSAFFLFCSE-OH)
adverse effects [4]: no adverse effects

Compound: C/C1=C/C(=O)O[C@@H]2C[C@@H](CC[C@H](C)/C=C\CC1)O[C@@](O)([C@@H]1CSC(=O)N1)C2 [Latrunculin B]
effect of inhibitor pre-treatment on uptake of biotinylated Hp91 (Immature human DCs [5]): did not significantly reduce | uptake of Dextran FITC (Immature human DCs [5]): completely abrogating

Compound: COc1cccc(-c2cc(=O)c3ccccc3o2)c1N [PD98059]
effect of inhibitor pre-treatment on Hp91-induced IL-6 secretion (Immature human DCs [6]): failed to significantly reduce

Compound: C[S+]([O-])c1ccc(-c2nc(-c3ccncc3)c(-c3ccc(F)cc3)[nH]2)cc1 (stereo not drawn) [SB203580]
effect of inhibitor pre-treatment on Hp91-induced IL-6 secretion (Immature human DCs [6]): significantly reduced | effect of inhibitor pre-treatment on Hp91-induced IL-6 secretion (J774 macrophages [3]): significantly lowered

Compound: [N-]=[N+]=[N-] [Sodium azide, sodium azide]
inhibition at 10000 µM (Immature human DCs [5]; Homo sapiens, read-out: inhibition of Hp91 uptake): ~40%

Compound: N=C(N)NC(=O)c1nc(Cl)c(N)nc1N [amiloride]
effect of inhibitor pre-treatment on uptake of biotinylated Hp91 (Immature human DCs [5]; 30 minutes pre-treatment, PAO 2 μM, CP 100 μM, NY 20 μM, AM 2 mM): failed to significantly reduce

Compound: CN(C)CCCN1c2ccccc2Sc2ccc(Cl)cc21 [chlorpromazine]
effect of inhibitor pre-treatment on uptake of biotinylated Hp91 (Immature human DCs [5]): significantly reduced | effect of inhibitor pre-treatment on Hp91-induced IL-6 secretion (J774 macrophages [3]): no reduction

Compound: C[C@@H]1[C@H](O)[C@@H](C)/C=C/C=C/CC/C=C/C=C/C=C/C=C/C(O[C@H]2O[C@H](C)[C@@H](O)[C@H](N)[C@@H]2O)CC2O[C@](O)(CC(O)C(O)CCC(O)CC(O)CC(O)CC(=O)O[C@H]1C)CC(O)C2C(=O)O (stereo partly drawn) [nystatin]
effect of inhibitor pre-treatment on uptake of biotinylated Hp91 (Immature human DCs [5]): failed to significantly reduce

endocytosis by DCs (Immature human DCs [5]; [10]): failed to be endocytosed
Compound: APKRPPSA (UC411 peptide)

Compound: ASLAPPFPNCFDPKSREF (scrambled Hp91 peptide)
antigen-specific immune response (IFN-γ ELISPOT, IL-2) ([7]; 250 μg with SIINFEKL peptide, compared to Hp91): failed to mount an antigen-specific immune response | uptake by DCs (Immature human DCs [5]): much lesser extent than Hp91; also recorded: not taken up

endocytosis by DCs (Immature human DCs [5]; [10]): failed to be endocytosed
Compound: DPNAPKRP (UC18 peptide)
secondary structure from CD spectrum (Circular dichroism): polyproline II helix

Compound: N-tosyl-L-phenylalanine chloromethyl ketone [TPCK]
effect of inhibitor pre-treatment on Hp91-induced IL-6 secretion (Immature human DCs [6]): significantly reduced | effect of inhibitor pre-treatment on Hp91-induced IL-6 secretion (J774 macrophages [3]): significantly lowered

endocytosis by DCs (Immature human DCs [5]; [10]): failed to be endocytosed
Compound: RPPSAFFL (UC714 peptide)
IFNγ-secreting T cells relative to full-length Hp91 peptide ([7]; equimolar doses): 50% | number of antigen-specific IFNγ-secreting T cells compared to PBS [7]: moderate increases

Compound: RPPSAFFLFCSE (UC718 peptide)
IL-6 / cytokine secretion from DCs (Immature human DCs [6]; short peptides, 48 hours): induces cytokine release from DCs

Compound: SAFFLFCSE [UC1018]
tumor formation and tumor growth vs PBS group (B16 melanoma cells; 142 μg with apoptotic B16 cells, significant as early as 11 days post challenge): delay in tumor formation and slowing of tumor growth | mice tumor-free and alive (B16 melanoma cells; at 75 days post tumor challenge): 60% | secondary structure from CD spectrum (Circular dichroism): alpha helix | IL-2 level relative to Hp91 controls (splenocytes; equimolar doses): 4 fold | IL-2 (splenocytes; immunized with SIINFEKL peptide and peptide adjuvant): significantly enhanced | adjuvant strength in vivo relative to Hp91, by IFN-γ ELISPOT and IL-2 cytokine release ([7]; discussion statement): 3 fold | IFNγ ELISPOT immune response relative to Hp91 positive control ([7]; equimolar doses): 4 fold | number of antigen-specific IFNγ-secreting T cells compared to PBS [7]: significant increase | uptake by DCs compared to Hp91 controls (Immature human DCs [5]; [10]): over 3 fold

detection within DCs (Immature human DCs [9]): not detected | uptake by DCs (Immature human DCs [5]): not taken up
Compound: SIGDVAKKLGEMWNNTAA (Hp121 peptide)
activation of human DCs in vitro (Immature human DCs [8]): does not cause activation | number of INF-γ secreting cells ([7]; s.c. with OVA-I peptide, 250 μg peptide, freshly isolated and expanded splenocytes, vs PBS/OVA-I): No significant increase | activation of mouse BM-DCs in vitro (mouse BM-DCs): does not cause activation
